Results on 41 compounds are retold here after patent US5439928A, “Aromatase inhibiting 4(5)-imidazoles” (Orion-yhtyma Oy, priority 1993, dated 1995).

One assay deals with desmolase (CSCC). Kind of assay: Cholesterol side chain cleavage (CSCC, desmolase) inhibition, mitochondrial fraction from human placenta or bovine adrenals. In kind it is biochemical. As to conditions: substrate 5 μM, 30 min, 37° C., read-out: IC-50 CSCC (desmolase).
For `Cc1cccc(C(CCCc2c[nH]cn2)c2ccccc2)c1` (centres unmarked) [Compound 4a, 4-(4-(3-methylphenyl)-4-phenylbutyl]-1H-imidazole], the IC50 was determined as 7.5 µM.
As to `c1ccc(CCC(c2ccccc2)c2c[nH]cn2)cc1` (centres unmarked) [Compound 7c, 4-(1,3-diphenylpropyl)-1H-imidazole], the IC50 worked out at 7.5 µM.
Same read-out and setting: next, `c1ccc(CCC(Cc2c[nH]cn2)c2ccccc2)cc1` (centres unmarked) [Compound 16c, 4-(2,4-diphenylbutyl)-1H-imidazole]: 12 µM.
Same read-out and setting: then `COc1ccc(C(CCCc2c[nH]cn2)c2ccccc2)cc1` (centres unmarked) [Compound 11a, 4-[4-(4-methoxyphenyl)-4-phenylbutyl]-1H-imidazole], with 190 µM.
With `Cc1ccc(C(CCCc2c[nH]cn2)c2ccccc2)cc1` (centres unmarked) [Compound 1a, 4-[4-(4-methylphenyl)-4-phenylbutyl]-1H-imidazole], the IC50 amounted to 96 µM.
With `Fc1ccc(C(CCCc2c[nH]cn2)c2ccc(F)cc2)cc1` [Compound 23a, 4-[4,4-bis(4-fluorophenyl)butyl]-1H-imidazole], the IC50 came out at 175 µM.
Same read-out and setting: next, `Fc1ccc(C(CCc2ccccc2)Cc2c[nH]cn2)cc1` (centres unmarked) [Compound 17c, 4-[2-(4-fluorophenyl)-4-phenylbutyl]-1H-imidazole]: 28 µM.
Same read-out and setting: next, `Cc1ccccc1CCCCC(c1ccc(F)cc1)c1c[nH]cn1` (centres unmarked) [Compound 2c, 4-[1-(4-fluorophenyl)-5-(2-methylphenyl)pentyl]-1H-imidazole]: 16 µM.
For the compound `Cc1cccc(C(CCCc2cncn2Cc2ccccc2)c2ccccc2)c1` (centres unmarked) [Compound 3a, 1-benzyl-5-[4-(3-methylphenyl)-4-phenylbutyl]-1H-imidazole], the IC50 worked out at 38 µM.
For `Cc1cccc(C(CCCc2c[nH]cn2)c2cccc(C)c2)c1` [Compound 13a, 4-[4,4-bis(3-methylphenyl)butyl]-1H-imidazole], the IC50 is 48 µM.
The same measure, in the same setting: then `Cc1ccc(C(CCCc2c[nH]cn2)c2ccccc2)cc1C` (centres unmarked) [Compound 15a, 4-[4-(3,4-dimethylphenyl)-4-phenylbutyl]-1H-imidazole], with 39 µM; and `Cc1ccccc1C(CCCc1c[nH]cn1)c1ccccc1` (centres unmarked) [Compound 5a, 4-[4-(2-methylphenyl)-4-phenylbutyl]-1H-imidazole], with 29 µM; and `c1ccc(C(CCCCCc2c[nH]cn2)c2ccccc2)cc1` [Compound 19a, 4-(6,6-diphenylhexyl)-1H-imidazole], with 61 µM.
Still for that read-out and setting: then `c1ccc(C(CCCCc2c[nH]cn2)c2ccccc2)cc1` [Compound 18a, 4-(5,5-diphenylpentyl)-1H-imidazole], with 68 µM.
On the same count and under the same terms, then `CCc1ccc(C(CCCc2c[nH]cn2)c2ccccc2)cc1` (centres unmarked) [Compound 26a, 4-[4-(4-ethylphenyl)-4-phenylbutyl]-1H-imidazole], with 65 µM; and `c1ccc(C(CCCc2c[nH]cn2)c2ccccc2)cc1` [Compound 9a, 4-(4,4-diphenylbutyl)-1H-imidazole], with 320 µM; and `Cc1ccccc1C(CCCc1cncn1Cc1ccccc1)c1ccccc1` (centres unmarked) [Compound 6a, 1-benzyl-5-[4-(2-methylphenyl)-4-phenylbutyl]-1H-imidazole], with 32 µM.
Consider `Fc1ccc(CCC(Cc2c[nH]cn2)c2ccc(F)cc2)cc1` (centres unmarked) [Compound 18c, 4-[2,4-bis(4-fluorophenyl)butyl]-1H-imidazole], for which the IC50 turned out to be 20 µM.
With `Cc1cc(C)cc(CCCCC(c2ccc(F)cc2)c2c[nH]cn2)c1` (centres unmarked) [Compound 5c, 4-[5-(3,5-dimethylphenyl)-1-(4-fluorophenyl)-pentyl]-1H-imidazole], the IC50 came to 80 µM.
Consider `O=[N+]([O-])c1ccc(C(CCCc2c[nH]cn2)c2ccc([N+](=O)[O-])cc2)cc1` [Compound 24a, 4-[4,4-bis(4-nitrophenyl)butyl]-1H-imidazole], for which the IC50 stood at 37 µM.
Take `Cc1ccc(C(CCCc2c[nH]cn2)c2ccc(C)cc2)cc1` [Compound 17a, 4-[4,4-bis(4-methylphenyl)butyl]-1H-imidazole]: the IC50 is 110 µM.
On the same count and under the same terms, next, `Fc1ccc(C(CCc2ccccc2)c2c[nH]cn2)cc1` (centres unmarked) [Compound 9c, 4-[1-(4-fluorophenyl)-3-phenylpropyl]-1H-imidazole]: 22 µM.
On the same count and under the same terms, then `Cc1ccc(CCCCC(c2ccc(F)cc2)c2c[nH]cn2)cc1` (centres unmarked) [Compound 4c, 4-[1-(4-fluorophenyl)-5-(4-methylphenyl)pentyl]-1H-imidazole], with 170 µM.
The same measure, in the same setting: next, `COc1cccc(CCCCC(c2ccc(F)cc2)c2c[nH]cn2)c1` (centres unmarked) [Compound 11c, 4-[1-(4-fluorophenyl)-5-(3-methoxyphenyl)pentyl]-1H-imidazole]: 12 µM; `C(=Cc1c[nH]cn1)CC(c1ccccc1)c1ccccc1` [Compound 22a, 4-(4,4-diphenyl-1-butenyl)-1H-imidazole]: 165 µM; `Cc1cc(C)cc(C(CCCc2c[nH]cn2)c2ccccc2)c1` (centres unmarked) [Compound 14a, 4-[4-(3,5-dimethylphenyl)-4-phenylbutyl]-1H-imidazole]: 65 µM.
In the case of `Fc1ccc(CCC(c2ccc(F)cc2)c2c[nH]cn2)cc1` (centres unmarked) [Compound 14c, 4-[1,3-bis(4-fluorophenyl)propyl]-1H-imidazole], the IC50 is 22 µM.
On to `c1ccc(CC(CCCc2c[nH]cn2)c2ccccc2)cc1` (centres unmarked) [Compound 8a, 4-(4,5-diphenylpentyl)-1H-imidazole], for which the IC50 is 27 µM.
Same read-out and setting: then `Cc1cccc(CCCCC(c2ccc(F)cc2)c2c[nH]cn2)c1` (centres unmarked) [Compound 3c, 4-[1-(4-fluorophenyl)-5-(3-methylphenyl)pentyl]-1H-imidazole], with 57 µM; and `Fc1ccc(C(CCCc2c[nH]cn2)c2ccccc2)cc1` (centres unmarked) [Compound 21a, 4-[4-(4-fluorophenyl)-4-phenylbutyl]-1H-imidazole], with 80 µM; and `Fc1ccc(C(CCCc2ccccc2)c2c[nH]cn2)cc1` (centres unmarked) [Compound 10c, 4-[1-(4-fluorophenyl)-4-phenylbutyl]-1H-imidazole], with 31 µM.
On to `Nc1ccc(C(CCCc2c[nH]cn2)c2ccc(N)cc2)cc1` [Compound 25a, 4-[4,4-bis(4-aminophenyl)butyl]-1H-imidazole], for which the IC50 is 210 µM.
Still for that read-out and setting: next, `COc1ccc(CCCCC(c2ccc(F)cc2)c2c[nH]cn2)cc1` (centres unmarked) [Compound 12c, 4-[1-(4-fluorophenyl)-5-(4-methoxyphenyl)pentyl]-1H-imidazole]: 22.5 µM.
The same measure, in the same setting: then `N#Cc1ccc(C(CCc2ccc(F)cc2)Cc2c[nH]cn2)cc1` (centres unmarked) [Compound 19c, 4-[2-(4-cyanophenyl)-4-(4-fluorophenyl)butyl]-1H-imidazole], with 6.6 µM; and `Cc1cccc(C(CCCc2c[nH]cn2)c2cc(C)cc(C)c2)c1` (centres unmarked) [Compound 16a, 4-[4-(3,5-dimethylphenyl)-4-(3-methylphenyl)butyl]-1H-imidazole], with 95 µM.
Same read-out and setting: then `Fc1ccccc1C(CCCc1c[nH]cn1)c1ccccc1` (centres unmarked) [Compound 20a, 4-[4-(2-fluorophenyl)-4-phenylbutyl]-1H-imidazole], with 38 µM.
For `COc1ccc(C(CCCc2c[nH]cn2)c2ccc(OC)cc2)cc1` [Compound 12a, 4-[4,4-bis(4-methoxyphenyl)butyl]-1H-imidazole], the IC50 was found to be 46 µM.
Take `Fc1ccc(C(CCCCc2ccccc2)c2c[nH]cn2)cc1` (centres unmarked) [Compound 1c, 4-[1-(4-fluorophenyl)-5-phenylpentyl]-1H-imidazole]: the IC50 worked out at 19 µM.
For `Fc1ccc(CCCC(c2ccc(F)cc2)c2c[nH]cn2)cc1` (centres unmarked) [Compound 15c, 4-[1,4-bis(4-fluorophenyl)butyl]-1H-imidazole], the IC50 amounted to 29 µM.
On the same count and under the same terms, then `Cc1ccc(C(CCCc2cncn2Cc2ccccc2)c2ccccc2)cc1` (centres unmarked) [Compound 2a, 1-benzyl-5-[4-(4-methylphenyl)-4-phenylbutyl]-1H-imidazole], with 50 µM.
The same measure, in the same setting: then `Cc1cccc(C)c1CCCCC(c1ccc(F)cc1)c1c[nH]cn1` (centres unmarked) [Compound 13c, 4-[1-(4-fluorophenyl)-5-(2,6-dimethylphenyl)-pentyl]-1H-imidazole], with 31 µM.

The next assay concerns DMBA-induced rat mammary adenocarcinomas. Kind of assay: Anti-tumour effect in vivo against DMBA-induced rat mammary adenocarcinomas. To be noted: 3 mg/kg, daily for five weeks, female rats; control 3. As to the method: The anti-tumour effect was investigated in vivo against DMBA-induced rat mammary adenocarcinomas by the following method. Mammary adenocarcinoma was induced with DMBA in 50±2 days old female rats. Treatment with the compound under test was started after palpable tumours had appeared. Tumour size and amount of tumours were evaluated once a week. Tumour sizes in the control group, treated with solvent, were compared with the test groups. Daily administration schedule was employed for five weeks and animals were sacrificed. The change in tumour sizes was evaluated. Results were evaluated as changes in the sizes of tumours and divided into three groups, namely increasing, stable and decreasing sizes of tumours.
On to `c1ccc(C(CCCc2c[nH]cn2)c2ccccc2)cc1` [Compound 9a, 4-(4,4-diphenylbutyl)-1H-imidazole], for which the “Number of tumours decreasing” value is recorded as 2.

Staying with this assay, now noted: 3 mg/kg, daily for five weeks, female rats; control 21.
Consider `c1ccc(C(CCCc2c[nH]cn2)c2ccccc2)cc1` [Compound 9a, 4-(4,4-diphenylbutyl)-1H-imidazole], for which the “Number of tumours stable” value turned out to be 14.

Still in this assay, the particulars now being: 3 mg/kg, daily for five weeks, female rats; control 42.
With `c1ccc(C(CCCc2c[nH]cn2)c2ccccc2)cc1` [Compound 9a, 4-(4,4-diphenylbutyl)-1H-imidazole], the “Number of tumours increasing” value is reported as 37.

The same assay, now with this note: 30 mg/kg, daily for five weeks, female rats; control 3.
Turning to `c1ccc(C(CCCc2c[nH]cn2)c2ccccc2)cc1` [Compound 9a, 4-(4,4-diphenylbutyl)-1H-imidazole], the “Number of tumours decreasing” value was determined as 21.

The assay is the same for the next values; noted with them: 30 mg/kg, daily for five weeks, female rats; control 21.
For `c1ccc(C(CCCc2c[nH]cn2)c2ccccc2)cc1` [Compound 9a, 4-(4,4-diphenylbutyl)-1H-imidazole], the “Number of tumours stable” value is listed as 3.

The assay is the same for the next values; noted with them: 30 mg/kg, daily for five weeks, female rats; control 42.
Regarding `c1ccc(C(CCCc2c[nH]cn2)c2ccccc2)cc1` [Compound 9a, 4-(4,4-diphenylbutyl)-1H-imidazole], the “Number of tumours increasing” value is 15.
